Each block holds one molecule with its values, some of them ahead of it.
Experiments:
GAK [1] = biological target: T1, GAK (Homo sapiens, UniProt O14976); assay: KINOMEscan active site-directed competition binding assay, GAK
T1 sequence (O14976 1-1311): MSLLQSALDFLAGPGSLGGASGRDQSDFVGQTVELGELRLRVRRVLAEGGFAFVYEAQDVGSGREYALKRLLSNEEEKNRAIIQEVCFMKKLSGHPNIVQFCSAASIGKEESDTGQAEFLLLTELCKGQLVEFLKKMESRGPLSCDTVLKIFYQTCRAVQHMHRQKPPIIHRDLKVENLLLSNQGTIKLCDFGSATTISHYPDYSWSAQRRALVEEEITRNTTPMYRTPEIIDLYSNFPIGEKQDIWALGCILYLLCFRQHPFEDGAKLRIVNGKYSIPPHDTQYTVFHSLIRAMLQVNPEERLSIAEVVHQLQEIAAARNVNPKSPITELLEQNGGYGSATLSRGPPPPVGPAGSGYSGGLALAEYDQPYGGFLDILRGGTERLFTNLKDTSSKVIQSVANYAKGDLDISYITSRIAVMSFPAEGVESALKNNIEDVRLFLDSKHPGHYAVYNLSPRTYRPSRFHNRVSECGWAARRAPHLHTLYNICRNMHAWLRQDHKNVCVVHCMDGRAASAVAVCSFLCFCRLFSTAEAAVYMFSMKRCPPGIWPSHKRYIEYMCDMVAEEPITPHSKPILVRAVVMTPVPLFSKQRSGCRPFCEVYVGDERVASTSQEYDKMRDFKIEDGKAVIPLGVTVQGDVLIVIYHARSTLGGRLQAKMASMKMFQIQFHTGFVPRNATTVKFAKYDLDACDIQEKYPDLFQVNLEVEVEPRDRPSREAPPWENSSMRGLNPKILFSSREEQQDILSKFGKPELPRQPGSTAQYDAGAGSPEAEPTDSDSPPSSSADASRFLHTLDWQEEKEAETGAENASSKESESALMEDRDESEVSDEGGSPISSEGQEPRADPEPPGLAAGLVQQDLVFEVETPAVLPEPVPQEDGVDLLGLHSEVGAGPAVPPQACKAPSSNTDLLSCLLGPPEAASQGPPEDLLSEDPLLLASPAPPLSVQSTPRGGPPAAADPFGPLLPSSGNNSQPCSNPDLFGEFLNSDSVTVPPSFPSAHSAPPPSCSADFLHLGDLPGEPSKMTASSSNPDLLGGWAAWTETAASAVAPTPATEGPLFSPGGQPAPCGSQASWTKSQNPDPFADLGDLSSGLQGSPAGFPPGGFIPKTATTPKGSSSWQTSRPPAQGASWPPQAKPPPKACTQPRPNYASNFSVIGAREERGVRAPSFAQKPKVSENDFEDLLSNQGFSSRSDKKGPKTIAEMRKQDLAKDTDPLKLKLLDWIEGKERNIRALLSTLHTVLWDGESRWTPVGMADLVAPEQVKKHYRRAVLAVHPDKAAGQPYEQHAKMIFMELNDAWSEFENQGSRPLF

Huh-7.5 cells = assay: Cellular viability, alamarBlue-based assay; conditions: HCVpp entry assay, 4 hour treatment
HCV RNA replication = HCV RNA replication by luciferase assay after electroporation; type: cell-based, hepatitis C virus; conditions: 72 hours postelectroporation, treated daily
EGFR = EGFR (Homo sapiens, UniProt P00533); assay: EGFR binding / anti-EGFR activity
AP2M1 phosphorylation = AP2M1 phosphorylation by Western analysis in Huh-7.5 cells; type: cell-based, human; conditions: calyculin A, versus DMSO control
GAK [2] = biological target: T1, GAK; conditions: cited from earlier work

EGFR, sequence (P00533 25-1210): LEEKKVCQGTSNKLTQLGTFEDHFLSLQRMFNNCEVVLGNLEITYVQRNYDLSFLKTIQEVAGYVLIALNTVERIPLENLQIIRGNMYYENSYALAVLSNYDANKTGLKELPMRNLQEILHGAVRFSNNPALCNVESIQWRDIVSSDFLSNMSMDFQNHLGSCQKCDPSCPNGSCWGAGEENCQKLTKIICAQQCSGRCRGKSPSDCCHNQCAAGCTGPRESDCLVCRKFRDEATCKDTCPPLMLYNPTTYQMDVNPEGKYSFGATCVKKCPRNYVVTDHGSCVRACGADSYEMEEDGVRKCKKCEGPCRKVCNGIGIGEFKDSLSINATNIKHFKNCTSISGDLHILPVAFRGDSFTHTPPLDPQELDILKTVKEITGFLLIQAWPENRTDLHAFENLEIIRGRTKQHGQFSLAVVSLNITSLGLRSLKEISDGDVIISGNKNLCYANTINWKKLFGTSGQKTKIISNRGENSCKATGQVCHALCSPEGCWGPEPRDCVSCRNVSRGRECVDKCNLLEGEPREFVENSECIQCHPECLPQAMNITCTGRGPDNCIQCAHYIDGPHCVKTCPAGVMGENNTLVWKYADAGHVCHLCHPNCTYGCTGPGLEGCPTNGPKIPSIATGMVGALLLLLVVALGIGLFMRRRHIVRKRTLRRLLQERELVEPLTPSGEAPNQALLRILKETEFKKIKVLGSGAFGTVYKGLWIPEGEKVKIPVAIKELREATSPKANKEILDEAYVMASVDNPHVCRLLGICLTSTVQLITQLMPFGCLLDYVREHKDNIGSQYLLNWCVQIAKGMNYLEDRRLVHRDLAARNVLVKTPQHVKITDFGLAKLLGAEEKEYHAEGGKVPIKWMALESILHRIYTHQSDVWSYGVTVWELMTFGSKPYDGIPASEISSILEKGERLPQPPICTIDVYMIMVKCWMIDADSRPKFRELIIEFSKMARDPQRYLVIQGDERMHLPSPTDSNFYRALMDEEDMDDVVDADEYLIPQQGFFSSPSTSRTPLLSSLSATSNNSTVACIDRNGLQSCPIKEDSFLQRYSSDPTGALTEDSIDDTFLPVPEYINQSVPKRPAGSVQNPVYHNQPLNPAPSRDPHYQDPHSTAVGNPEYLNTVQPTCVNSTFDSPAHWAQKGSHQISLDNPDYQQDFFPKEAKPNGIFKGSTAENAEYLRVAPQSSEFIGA

SMILES: COc1cc(-c2cnc3c(N4CCOCC4)snc3c2)cc(OC)c1OC [Compound 12g, 4-(6-(3,4,5-Trimethoxyphenyl)isothiazolo[4,3-b]pyridin-3-yl)morpholine]
effect on cellular viability (in words) (Huh-7.5 cells): minimal effect on cellular viability
effect on HCV RNA replication (in words) (HCV RNA replication): did not affect HCV RNA replication
anti-EGFR activity (in words) (EGFR): lack anti-EGFR activity
p-AP2M1 to AP2M1 ratio (in words) (AP2M1 phosphorylation): reduced

SMILES: COc1cc(-c2cnc3c(N4CCOCC4)snc3c2)ccc1N [Compound 12i, 2-Methoxy-4-(3-morpholinoisothiazolo[4,3-b]pyridin-6-yl)aniline]
effect on HCV RNA replication (in words) (HCV RNA replication): did not affect HCV RNA replication
anti-EGFR activity (in words) (EGFR): lack anti-EGFR activity

SMILES: COc1ccc(-c2cnc3c(NCCc4ccccc4)snc3c2)cc1OC [Compound 13k, 6-(3,4-dimethoxyphenyl)-N-phenethylisothiazolo[4,3-b]pyridin-3-amine]
GAK affinity (in words) (GAK [1]): completely lacking GAK affinity

SMILES: CCOc1cc2ncc(C#N)c(Nc3ccc(F)c(Cl)c3)c2cc1NC(=O)/C=C/CN(C)C [pelitinib]
Kd (in words) (GAK [2]): low nanomolar range

The remaining lines, values ahead:

GAK affinity (in words) (GAK [1]): equipotent
SMILES: c1csc(-c2cnc3c(N4CCOCC4)snc3c2)c1 [Compound 12a, 4-(6-(Thiophen-2-yl)isothiazolo[4,3-b]pyridin-3-yl)morpholine]

GAK affinity (in words) (GAK [1]): lacks any affinity
SMILES: COc1ccc(-c2cnc3c(N4CCOCC4)snc3c2)c(OC)c1 [Compound 12c, 4-(6-(2,4-Dimethoxyphenyl)isothiazolo[4,3-b]pyridin-3-yl)morpholine]

GAK affinity (in words) (GAK [1]): completely inactive
SMILES: c1cc2c(cc1-c1cnc3c(N4CCOCC4)snc3c1)OCO2 [Compound 12f, 4-(6-(Benzo[d][1,3]dioxol-5-yl)isothiazolo[4,3-b]pyridin-3-yl)morpholine]
